According to ChEMBL document CHEMBL4689842, “EUbOPEN Chemogenomics Library wave 1” (2021):

Legend:
Type in all cases: toxicity, cell-based
[1] = tested on: Fibroblast; assay: Incucyte cell viability with human fibroblast; conditions: 10 µM, compound concentration 10 uM
[2] = tested on: HEK-293T; assay: Incucyte cell viability with HEK293T; conditions: human, 10 µM, compound concentration 10 uM
[3] = tested on: U2OS; assay: Incucyte cell viability with U2OS; conditions: human, 10 µM, compound concentration 10 uM
[4] = 0 h, replicate number 1, timepoint 0 hours
[5] = 6 h, replicate number 1, timepoint 6 hours
[6] = 6 h, replicate number 2, timepoint 6 hours
[7] = 12 h, replicate number 1, timepoint 12 hours
[8] = 18 h, replicate number 1, timepoint 18 hours
[9] = 24 h, replicate number 1, timepoint 24 hours
[10] = 24 h, replicate number 2, timepoint 24 hours
[11] = 18 h, replicate number 2, timepoint 18 hours
[12] = 12 h, replicate number 2, timepoint 12 hours
[13] = 0 h, replicate number 2, timepoint 0 hours
Further: filed as whole numbers so only -1 and 0 and 1 occur.

Row | Compound | Growth Rate [1, 4] | Growth Rate [1, 5] | Growth Rate [1, 6] | Growth Rate [1, 7] | Growth Rate [1, 8] | Growth Rate [1, 9] | Growth Rate [2, 4] | Growth Rate [2, 8] | Growth Rate [2, 9] | Growth Rate [2, 10] | Growth Rate [3, 4] | Growth Rate [3, 5] | Growth Rate [3, 7] | Growth Rate [3, 8] | Growth Rate [3, 9] | Growth Rate [1, 11] | Growth Rate [2, 5] | Growth Rate [2, 7] | Growth Rate [3, 12] | Growth Rate [3, 11] | also measured
1 | NC(=O)c1ccc(NC(=O)NCc2cccc(C(=O)Nc3ccc4c(c3)CNCC4)c2)cc1 | 0 | 0 | 1 | 0 | 1 | 1 | 0 | 1 | 0 | 1 | 0 | 0 | 1 | 1 | 1 | – | – | – | – | – | –
2 | COc1ccc2cc(OCC3(C(=O)O)CN(C(=O)c4ccc(F)cc4)C3)ccc2c1 [PF-04418948] | 0 | 0 | 1 | 0 | 0 | 0 | 0 | 1 | 1 | – | 0 | – | 1 | 1 | 1 | 1 | 1 | 1 | 0 | 0 | Growth Rate [1, 10]: 1; Growth Rate [2, 6]: 0; Growth Rate [2, 11]: 0; Growth Rate [3, 6]: 0; Growth Rate [3, 10]: 0
3 | Br.Br.N=C(N)SCCc1c[nH]cn1 | 0 | 0 | – | 0 | 1 | 1 | 1 | 1 | 1 | 0 | 0 | 0 | 1 | 0 | 0 | 0 | 1 | 1 | 0 | 1 | Growth Rate [1, 10]: 0; Growth Rate [2, 13]: 0; Growth Rate [2, 11]: 0
4 | C[C@@H](c1cccc(CN)c1)n1cc(Cl)cc(C(N)=O)c1=N.Cl | – | 1 | 0 | 1 | 1 | 1 | 0 | – | 1 | – | – | 1 | 1 | 1 | 1 | 0 | – | – | 0 | 0 | Growth Rate [1, 13]: 0; Growth Rate [1, 12]: 0; Growth Rate [1, 10]: 0; Growth Rate [2, 13]: 1; Growth Rate [3, 13]: 1; Growth Rate [3, 6]: 0; Growth Rate [3, 10]: 0
5 | CNCCN1CCC(OCc2ccccc2)CC1 | – | 0 | 1 | 0 | 0 | 1 | 1 | 1 | 1 | – | – | 1 | 1 | 1 | 1 | – | – | – | – | – | Growth Rate [1, 13]: 0; Growth Rate [1, 12]: 1; Growth Rate [2, 13]: 0; Growth Rate [2, 6]: 1; Growth Rate [2, 12]: 1; Growth Rate [3, 13]: 0
6 | O=C(NCc1ccccc1)c1ccc(S(=O)(=O)NCc2ccccc2)cc1 | 0 | 0 | 1 | 0 | 1 | 0 | 0 | 1 | 0 | 1 | – | 0 | 1 | 0 | 1 | 0 | 0 | 1 | – | – | Growth Rate [1, 12]: 1; Growth Rate [2, 6]: 1; Growth Rate [3, 13]: 1; Growth Rate [3, 10]: 0
7 | CC1=C(C#N)C(c2ccc3[nH]nc(C)c3c2)C(C#N)=C(C)N1 [BAY-474] | 1 | 0 | – | 1 | 1 | 1 | 0 | – | – | 1 | 0 | 0 | 0 | 0 | 0 | – | – | – | – | 1 | –
8 | CN(C)[C@@H]1CCN(c2cc(-c3ccccc3)nc3ccnn23)C1 [(R)-ZINC-3573] | 0 | 0 | – | 1 | 1 | 1 | 0 | 1 | 1 | 0 | – | – | 1 | 0 | 1 | 0 | 1 | 1 | 0 | 1 | Growth Rate [3, 6]: 0
9 | CC1(C)CCC(C)(C)c2cc(C3(c4ccc(C(=O)O)cc4)OCCO3)ccc21 | 0 | 1 | – | 1 | 1 | 1 | 0 | 1 | 1 | – | 0 | – | 1 | 1 | 1 | – | – | 1 | 0 | 0 | Growth Rate [2, 6]: 0; Growth Rate [3, 6]: 0
10 | N#Cc1c(O)nc(SCc2cccc(F)c2F)nc1C1CC1 | 0 | 1 | – | 1 | 1 | 1 | 0 | 1 | 1 | 0 | 0 | – | 1 | 1 | 1 | – | 1 | 1 | – | – | –
